Like-named read-outs stand apart in the source and are kept apart here.
Tests used:
[1] = biological target: human GABAA α1β2γ1 receptor (Homo sapiens (Human), UniProt P14867+Q8N1C3); assay: Radioligand binding assay, competition for [3H]RO7239181, γ1-containing GABAA subtypes; conditions: [3H]RO7239181 20-30 nM, Table 1
Method: (§1) The affinity of compounds at GABAA γ1 subunit-containing receptors was measured by competition for [^3H]RO7239181 (67.3 Ci/mmol; Roche) binding to membranes from HEK293F cells (ThermoFisher R79007) expressing human (transiently transfected) receptors of composition α5β2γ1, α2β2γ1, α1β2γ1.
(§2) Harvested pellets from HEK293F cells expressing the different GABAA receptor subtypes were resuspended in Mannitol Buffer pH 7.2-7.4 (Mannitol 0.29 M, Triethylamine 10 mM, Acetic acid 10 mM, EDTA 1 mM plus protease inhibitors (20 tablets Complete, Roche Diagnostics Cat. No. 05 056 489 001 per liter)), washed two times and then resuspended at 1:10 to 1:15 dilution in the same buffer. Cell disruption was performed by stirring the suspension in a Parr vessel #4637 at 435 psi for 15 minutes, and then the suspensions were centrifuged at 1000×g for 15 minutes at 4° C. (Beckman Avanti J-HC; rotor JS-4.2). The supernatant (S1) was transferred in a 21 Schott flask and the pellet (P1) was resuspended with Mannitol Buffer up to 175 ml. The resuspended pellet was transferred into a 250 ml Corning centrifugal beaker and centrifuged at 1500×g for 10 minutes at 4° C. (Beckman Avanti J-HC; rotor JS-4.2). The supernatant (S1) was then transferred in the 21 Schott flask and the pellet was discarded. The supernatants (S1) were centrifuged in 500 ml Beckman polypropylene centrifugal beaker at 15'000×g for 30 minutes at 4° C. (Beckman Avanti J-20 XP; rotor JLA-10.500). The pellet (P2) was resuspended with Mannitol Buffer 1:1 and frozen at −80° C. The supernatant (S2) was centrifuged in 100 ml Beckman polypropylene centrifugal tubes at 48000×g for 50 minutes at 4° C. (Beckman Avanti J-20 XP; rotor JA-18). The supernatant (S3) was discarded and the pellet (P3) was resuspended with 1:1 Mannitol Buffer. The P2 and P3 protein concentration was determined with the BIORAD Standard assay method with bovine serum albumin as standard and measured on the NANO-Drop 1000. The membrane suspension was aliquots (500 μl per tube) and stored at −80° C. until required.
(§3) Membrane homogenates were resuspended and polytronised (Polytron PT1200E Kinematica AG) in Potassium Phosphate 10 mM, KCl 100 mM binding buffer at pH 7.4 to a final assay concentration determined with a previous experiment.
(§4) Assays were incubated to equilibrium for 1 hour at 4° C. and then, membranes were filtered onto unifilter (96-well white microplate with bonded GF/C filters preincubated 20-50 minutes in 0.3% Polyethylenimine) with a Filtermate 196 harvester (Packard BioScience) and washed 4 times with cold Potassium Phosphate 10 mM pH 7.4, KCl 100 mM binding buffer. After anhydrousing, filter-retained radioactivity was detected by liquid scintillation counting. Ki values were calculated using Excel-Fit (Microsoft) and are the means of two determinations.

[2] = biological target: human GABAA α2β2γ1 receptor (Homo sapiens (Human), UniProt P47869+Q8N1C3); assay: as above; conditions: Ki h-GABAA α2β2γ1, membranes of HEK293F cells, [3H]RO7239181 20-30 nM
Method: as §1, §2, §3, §4

[3] = biological target: human GABAA α5β2γ1 receptor (Homo sapiens (Human), UniProt P31644+Q8N1C3); assay: as above
Method: as §1, with “α1β2γ1. For better protein expression of the α2 subunit-containing receptors, the 28 amino acid long signal peptide (Met1 to Ala28) of the human GABAA α2 subunit was substituted by the 31 amino acid long signal peptide (Met1 to Ser31) of human GABAA α5 subunit.” for “α1β2γ1.”
as §2, §3
as §4, with “Radioligand binding assays were carried out in a volume of 200 μL (96-well plates) which contained 100 μL of cell membranes, [^3H]RO7239181 at a concentration of 1.5 nM (α5β2γ1) or 20-30 nM (α1β2γ1, α2β2γ1) and the test compound in the range of [0.3-10000]×10^−9 M. Nonspecific binding was defined by 10×10^−6 (α5β2γ1) and 30×10^−6 M RO7239181 and typically represented less than 5% (α5β2γ1) and less than 20% (α1β2γ1, α2β2γ1) of the total binding. Assays” for “Assays”

[4] = biological target: human GABAA α1β3γ2 receptor (Homo sapiens (Human), UniProt P14867+P18507); assay: Radioligand binding assay, competition for [3H]Flumazenil, γ2-containing GABAA subtypes; conditions: for γ2/γ1 Selectivity Ratio: Ki α1β3γ2 (nM)/Ki α2β2γ1 (nM); for LogSel: Log[Ki α1β3γ2 (nM)/Ki α2β2γ1 (nM)]
Method: The affinity of compounds at GABAA γ2 subunit-containing receptors was measured by competition for [^3H]Flumazenil (81.1 Ci/mmol; Roche) binding to HEK293F cells expressing human (transiently transfected) receptors of composition α1β3γ2.
Harvested pellets from HEK293F cells expressing the different GABAA γ2 receptor subtypes were resuspended in Mannitol Buffer pH 7,2-7,4 and processed as described above for the cells expressing the GABAA γ1 subunit-containing receptors.
Assays were incubated to equilibrium for 1 hour at 4° C. and harvested onto GF/C uni-filters (Packard) by filtration using a Packard harvester and washing with ice-cold wash buffer (50 mM Tris; pH 7.5). After anhydrousing, filter-retained radioactivity was detected by liquid scintillation counting. Ki values were calculated using Excel-Fit (Microsoft) and are the means of two determinations.

[5] = HEK293F cells, [3H]Flumazenil 1 nM, Table 1, read-out: Ki h-GABAA α1β3γ2
[6] = Ki h-GABAA α1β2γ1, membranes of HEK293F cells

| Compound | Ki ([1]; membranes of HEK293F cells, read-out: Ki h-GABAA α1β2γ1) [µM] | Ki ([2]; Table 1) [µM] | Ki ([2]; Table 2) [µM] | Ki [3] [µM] | Ki [4, 5] [µM] | γ2/γ1 Selectivity Ratio ([4]; Table 1) | LogSel ([4]; Table 1) | Ki [1, 6] [µM] | Ki [4] [µM] |
| --- | --- | --- | --- | --- | --- | --- | --- | --- | --- |
| [2H]C1([2H])OCc2c(sc3c2C(c2c(F)cccc2F)=N[C@@H](C)c2nc(C(=O)NCC)nn2-3)OC1([2H])[2H] [Example 38, (7S)-14,14,15,15-tetradeuterio-9-(2,6-difluorophenyl)-N-ethyl-7-methyl-13,16-dioxa-18-thia-2,3,5,8-tetrazatetracyclo[8.8.0.02,6.011,17]octadeca-1(10),3,5,8,11(17)-pentaene-4-carboxamide] | 0.122 | 0.0179 | 0.0179 | 0.00359 | 4.03 | 224.3 | 2.35 |  |  |
| Cc1nnc2n1-c1sc3c(c1C(c1c(F)cccc1F)=N[C@H]2C)CCC[C@@H](F)C3 (single isomer, unassigned) [Example 16] |  | 0.0898 | 0.0898 | 0.0136 |  | 15.8 | 1.20 | 0.421 | 1.42 |
| C[C@@H]1N=C(c2c(F)cccc2F)c2c(sc3c2CCCCC3)-n2c1n[nH]c2=O [Example 6, (7S)-9-(2,6-difluorophenyl)-7-methyl-18-thia-2,4,5,8-tetrazatetracyclo[8.8.0.02,6.011,17]octadeca-1(10),5,8,11(17)-tetraen-3-one] |  | 0.0373 | 0.0373 | 0.00369 |  | 65.3 | 1.82 |  | 2.44 |
| C[C@@H]1N=C(c2c(F)cccc2F)c2c(sc3c2COCCO3)-n2cc(C(=O)NCC(C)(C)O)nc21 [Example 59, (7S)-9-(2,6-difluorophenyl)-N-(2-hydroxy-2-methyl-propyl)-7-methyl-13,16-dioxa-18-thia-2,5,8-triazatetracyclo[8.8.0.02,6.011,17]octadeca-1(10),3,5,8,11(17)-pentaene-4-carboxamide] |  | 0.0089 | 0.0089 | 0.00227 | 1.27 | 142.9 | 2.16 | 0.0217 |  |
| Cc1nnc2n1-c1sc3c(c1C(c1c(F)cccc1F)=N[C@H]2C)COCC[C@H]3F [Example 54, (7S,16R)-9-(2,6-difluorophenyl)-16-fluoro-3,7-dimethyl-13-oxa-18-thia-2,4,5,8-tetrazatetracyclo[8.8.0.02,6.011,17]octadeca-1(10),3,5,8,11(17)-pentaene] |  | 0.0358 | 0.0358 | 0.0091 |  | 141.9 |  |  | 5.08 |
| Cc1nnc2n1-c1sc3c(c1C(c1c(F)cccc1F)=NC2)CCOCC3 [Example 5, 9-(2,6-difluorophenyl)-3-methyl-14-oxa-18-thia-2,4,5,8-tetrazatetracyclo[8.8.0.02,6.011,17]octadeca-1(10),3,5,8,11(17)-pentaene] |  | 0.0635 | 0.0635 | 0.0105 |  | 19.8 | 1.30 | 0.246 | 1.26 |
| C[C@@H]1N=C(c2c(F)cccc2F)c2c(sc3c2COCCO3)-n2nc(C(=O)NCC3(O)CC3)nc21 [Example 60, (7S)-9-(2,6-difluorophenyl)-N-[(1-hydroxycyclopropyl)methyl]-7-methyl-13,16-dioxa-18-thia-2,3,5,8-tetrazatetracyclo[8.8.0.02,6.011,17]octadeca-1(10),3,5,8,11(17)-pentaene-4-carboxamide] |  | 0.0234 | 0.0234 | 0.00286 | 3.69 | 157.4 | 2.20 |  |  |
